In US12129237B2, “Substituted diaminocarboxamide and diaminocarbonitrile pyrimidines, compositions thereof, and methods of treatment therewith” (SIGNAL PHARMACEUTICALS, LLC, priority 2011, dated 2024) one finds IC50 data, which are given here for 34 compounds.

Each structure is given as a SMILES string.

T1 sequence (P45983 whole entry): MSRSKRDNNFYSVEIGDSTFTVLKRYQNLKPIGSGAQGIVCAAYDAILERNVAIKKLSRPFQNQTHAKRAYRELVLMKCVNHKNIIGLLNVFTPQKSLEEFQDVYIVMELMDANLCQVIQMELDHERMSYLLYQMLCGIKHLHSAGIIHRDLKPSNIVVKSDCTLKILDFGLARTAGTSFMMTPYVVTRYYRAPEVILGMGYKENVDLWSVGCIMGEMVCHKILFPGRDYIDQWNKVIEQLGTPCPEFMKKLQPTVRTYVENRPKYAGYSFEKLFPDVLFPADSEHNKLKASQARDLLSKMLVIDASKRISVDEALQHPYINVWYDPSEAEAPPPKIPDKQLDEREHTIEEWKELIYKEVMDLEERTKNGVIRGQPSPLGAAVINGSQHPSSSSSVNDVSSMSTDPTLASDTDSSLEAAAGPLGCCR

This test has as its target T1, JNK1 (Homo sapiens, UniProt P45983).
T1 construct: purchased Carna Biosciences
The test is described as follows: JNK1 biochemical assays (one or more of: time resolved fluorescence, Z'-LYTE Cascade, radioactive). Conditions: Table 3; JNK1 IC50 activity level; read-out: Act. Level.
For the compound `CCO[C@H]1CC[C@H](Nc2ncc(C#N)c(NC3CCCC3)n2)CC1` [Example C-23, 4-(cyclopentylamino)-2-((1r,4r)-4-ethoxycyclohexylamino) pyrimidine-5-carbonitrile], the IC50 lay within 200 to 800 nM.

In the case of `CCO[C@H]1CC[C@H](Nc2ncc(C#N)c(N[C@H]3CCCOC3)n2)CC1` [Example C-24, 2-((1r,4S)-4-ethoxycyclohexylamino)-4-((S)-tetrahydro-2H-pyran-3-ylamino)pyrimidine-5-carbonitrile], the IC50 was 1000 to 10000 nM.

Turning to `CCO[C@H]1CC[C@H](Nc2ncc(C#N)c(N[C@H]3CC[C@H](O)CC3)n2)CC1` [Example C-25, 2-((1r,4r)-4-ethoxycyclohexylamino)-4-((1r,4r)-4-hydroxycyclohexylamino) pyrimidine-5-carbonitrile], the IC50 was 800 to 1000 nM.

With `CCO[C@H]1CC[C@H](Nc2ncc(C#N)c(N[C@@H]3CCCOC3)n2)CC1` [Example C-26, 2-((1r,4R)-4-ethoxycyclohexylamino)-4-((R)-tetrahydro-2H-pyran-3-ylamino)pyrimidine-5-carbonitrile], the IC50 was in the range of 200 to 800 nM.

With `CO[C@H]1CC[C@H](Nc2ncc(C#N)c(N[C@@H]3CCCC[C@H](O)C3)n2)CC1` [Example C-27, 4-((1R,3S)-3-hydroxycycloheptylamino)-2-((1r,4R)-4-methoxycyclohexylamino) pyrimidine-5-carbonitrile], the IC50 is under 200 nM.

As for `CCO[C@H]1CC[C@H](Nc2ncc(C#N)c(N[C@@H]3CCC[C@](C)(O)C3)n2)CC1` [Example C-28, 2-((1r,4R)-4-ethoxycyclohexylamino)-4-((1R,3S)-3-hydroxy-3-methylcyclohexylamino) pyrimidine-5-carbonitrile], the IC50 was under 200 nM.

As to `CCO[C@H]1CC[C@H](Nc2ncc(C#N)c(N[C@@H]3CCCC[C@H](O)C3)n2)CC1` [Example C-29, 2-((1r,4R)-4-ethoxycyclohexylamino)-4-((1R,3S)-3-hydroxycycloheptylamino) pyrimidine-5-carbonitrile], the IC50 was under 200 nM.

Take `N#Cc1cnc(N[C@H]2CC[C@H](OCC(F)(F)F)CC2)nc1N[C@@H]1CCCC[C@H](O)C1` [Example C-30, 4-((1R,3S)-3-hydroxycycloheptylamino)-2-((1r,4R)-4-(2,2,2-trifluoroethoxy)cyclohexylamino) pyrimidine-5-carbonitril]: the IC50 is under 200 nM.

For `N#Cc1cnc(N[C@H]2CC[C@H](O)CC2)nc1N[C@@H]1CCCC[C@@H]1O` [Example C-31, 4-((1R,2S)-2-hydroxycyclohexylamino)-2-((1r,4R)-4-hydroxycyclohexylamino) pyrimidine-5-carbonitrile], the IC50 lay in the range of 200 to 800 nM.

As to `N#Cc1cnc(N[C@H]2CC[C@H](OC(F)F)CC2)nc1N[C@@H]1CCCC[C@H](O)C1` [Example C-32, 2-((1r,4R)-4-(difluoromethoxy)cyclohexylamino)-4-((1R,3S)-3-hydroxycycloheptylamino) pyrimidine-5-carbonitrile], the IC50 is under 200 nM.

Turning to `CC[C@]1(O)CCC[C@@H](Nc2nc(N[C@H]3CC[C@H](OC)CC3)ncc2C#N)C1` [Example C-33, 4-((1R,3S)-3-ethyl-3-hydroxycyclohexylamino)-2-((1r,4R)-4-methoxycyclohexylamino) pyrimidine-5-carbonitrile], the IC50 is under 200 nM.

Take `CN(C)C(=O)C(C)(C)C1CCC(Nc2ncc(C#N)c(N[C@@H]3CCC[C@H](O)C3)n2)CC1` (stereo partly drawn) [Example C-34, 2-(4-(5-cyano-4-((1R,3S)-3-hydroxycyclohexylamino)pyrimidin-2-ylamino)cyclohexyl)-N,N,2-trimethylpropanamide]: the IC50 is under 200 nM.

As to `CN(C)C(=O)C(C)(C)C1CCC(Nc2ncc(C#N)c(N[C@@H]3CCC[C@H](O)C3)n2)CC1` (stereo partly drawn) [Example C-35, 2-(4-(5-cyano-4-((1R,3S)-3-hydroxycyclohexylamino)pyrimidin-2-ylamino)cyclohexyl)-N,N,2-trimethylpropanamide], the IC50 lay within 200 to 800 nM.

Take `N#Cc1cnc(N[C@H]2CC[C@H](O)CC2)nc1N[C@@H]1CCCC[C@H](O)C1` [Example C-36]: the IC50 was under 200 nM.

Turning to `CCO[C@H]1CC[C@H](Nc2ncc(C#N)c(N[C@H]3CCOC3)n2)CC1` [Example C-37, 2-((1r,4S)-4-ethoxycyclohexylamino)-4-((S)-tetrahydrofuran-3-ylamino)pyrimidine-5-carbonitrile], the IC50 fell in the range of 200 to 800 nM.

As to `CC(C)(C)Nc1ncc(C#N)c(N[C@@H]2CCCC[C@H](O)C2)n1` [Example C-38, 2-(tert-butylamino)-4-((1R,3S)-3-hydroxycycloheptylamino) pyrimidine-5-carbonitrile], the IC50 is under 200 nM.

As to `CCO[C@H]1CC[C@H](Nc2ncc(C#N)c(N[C@@H]3CCOC3)n2)CC1` [Example C-39, 2-((1r,4R)-4-ethoxycyclohexylamino)-4-((R)-tetrahydrofuran-3-ylamino)pyrimidine-5-carbonitrile], the IC50 was 1000 to 10000 nM.

Regarding `C[C@]1(O)CCC[C@@H](Nc2nc(N[C@H]3CC[C@H](OCC(F)(F)F)CC3)ncc2C#N)C1` [Example C-40], the IC50 is under 200 nM.

Regarding `CCO[C@H]1CC[C@H](Nc2ncc(C#N)c(N[C@@H]3CC[C@@H](C)[C@H](O)C3)n2)CC1` [Example C-41, 2-((1r,4R)-4-ethoxycyclohexylamino)-4-((1R,3R,4R)-3-hydroxy-4-methylcyclohexylamino) pyrimidine-5-carbonitrile], the IC50 is under 200 nM.

For the compound `CO[C@H]1CC[C@H](Nc2ncc(C#N)c(N[C@@H]3CCCC[C@@H](O)C3)n2)CC1` [Example C-42, 4-((1R,3R)-3-hydroxycycloheptylamino)-2-((1r,4R)-4-methoxycyclohexylamino) pyrimidine-5-carbonitrile], the IC50 is under 200 nM.

Consider `CN(C)C(=O)[C@H]1CC[C@H](Nc2ncc(C#N)c(N[C@@H]3CCC[C@](C)(O)C3)n2)CC1` [Example C-43, (1R,4r)-4-(5-cyano-4-((1R,3S)-3-hydroxy-3-methylcyclohexylamino)pyrimidin-2-ylamino)-N,N-dimethylcyclohexanecarboxamide], for which the IC50 was under 200 nM.

Turning to `C[C@]1(O)CCC[C@@H](Nc2nc(N[C@H]3CC[C@H](OC(F)F)CC3)ncc2C#N)C1` [Example C-44, 2-((1r,4R)-4-(difluoromethoxy)cyclohexylamino)-4-((1R,3S)-3-hydroxy-3-methylcyclohexylamino) pyrimidine-5-carbonitrile], the IC50 is under 200 nM.

For the compound `CN(C)C(=O)[C@H]1CC[C@H](Nc2ncc(C#N)c(N[C@@H]3CCCC[C@H](O)C3)n2)CC1` [Example C-45, (1R,4r)-4-(5-cyano-4-((1R,3S)-3-hydroxycycloheptylamino)pyrimidin-2-ylamino)-N,N-dimethylcyclohexanecarboxamide], the IC50 is under 200 nM.

As to `CO[C@H]1CC[C@H](Nc2ncc(C#N)c(N[C@@H]3CC[C@@H](C)C(O)C3)n2)CC1` (stereo partly drawn) [Example C-46, 4-((1R,3R,4R)-3-hydroxy-4-methylcyclohexylamino)-2-((1r,4R)-4-methoxycyclohexylamino) pyrimidine-5-carbonitrile], the IC50 is under 200 nM.

As to `C[C@@H]1CC[C@@H](Nc2nc(N[C@H]3CC[C@H](C(=O)N(C)C)CC3)ncc2C#N)C[C@H]1O` [Example C-47, (1R,4r)-4-(5-cyano-4-((1R,3R,4R)-3-hydroxy-4-methylcyclohexylamino)pyrimidin-2-ylamino)-N,N-dimethylcyclohexanecarboxamid], the IC50 was under 200 nM.

Turning to `C[C@@H]1CC[C@@H](Nc2nc(N[C@H]3CC[C@H](O)CC3)ncc2C#N)C[C@H]1O` [Example C-48, 4-((1R,3R,4R)-3-hydroxy-4-methylcyclohexylamino)-2-((1r,4R)-4-hydroxycyclohexylamino) pyrimidine-5-carbonitrile], the IC50 is under 200 nM.

`C[C@@H]1CC[C@@H](Nc2nc(N[C@H]3CC[C@H](OCC(F)(F)F)CC3)ncc2C#N)C[C@H]1O` [Example C-49]: the IC50 was under 200 nM.

On to `CO[C@H]1CC[C@H](Nc2ncc(C#N)c(N[C@@H]3CCCC[C@](C)(O)C3)n2)CC1` [Example C-50, 4-((1R,3S)-3-hydroxy-3-methylcycloheptylamino)-2-((1r,4R)-4-methoxycyclohexylamino) pyrimidine-5-carbonitrile], for which the IC50 was 200 to 800 nM.

Consider `CO[C@H]1CC[C@H](Nc2ncc(C#N)c(N[C@H]3CCCC[C@](C)(O)C3)n2)CC1` [Example C-51, 4-((1S,3S)-3-hydroxy-3-methylcycloheptylamino)-2-((1r,4S)-4-methoxycyclohexylamino) pyrimidine-5-carbonitrile], for which the IC50 lay within 1000 to 10000 nM.

As to `CO[C@H]1CC[C@H](Nc2ncc(C#N)c(N[C@H]3CCCC[C@@](C)(O)C3)n2)CC1` [Example C-52, 4-((1S,3R)-3-hydroxy-3-methylcycloheptylamino)-2-((1r,4S)-4-methoxycyclohexylamino) pyrimidine-5-carbonitrile], the IC50 was under 200 nM.

For the compound `CO[C@H]1CC[C@H](Nc2ncc(C#N)c(N[C@@H]3CCCC[C@@](C)(O)C3)n2)CC1` [Example C-53, 4-((1R,3R)-3-hydroxy-3-methylcycloheptylamino)-2-((1r,4R)-4-methoxycyclohexylamino) pyrmidine-5-carbonitrile], the IC50 was under 200 nM.

Take `CN(C)C(=O)[C@H]1CC[C@H](Nc2ncc(C#N)c(N[C@@H]3CCCOC3)n2)CC1` [Example C-54, (1R,4r)-4-(5-cyano-4-((R)-tetrahydro-2H-pyran-3-ylamino)pyrimidin-2-ylamino)-N,N-dimethylcyclohexanecarboxamide]: the IC50 lay in the range of 200 to 800 nM.

`CC(C)CNc1nc(N[C@H]2CC[C@H](O)CC2)ncc1C#N` [Example C-55, 2-((1r,4r)-4-hydroxycyclohexylamino)-4-(isobutylamino)pyrimidine-5-carbonitrile]: the IC50 fell in the range of 1000 to 10000 nM.

Turning to `[2H]C([2H])([2H])O[C@H]1CC[C@H](Nc2ncc(C#N)c(N[C@@H]3CCC[C@](C)(O)C3)n2)CC1` [Example C-56, 4-((1R,3S)-3-hydroxy-3-methylcyclohexylamino)-2-((1r,4R)-4-((^2H3)methyloxy)cyclohexyl-amino)pyrimidine-5-carbonitrile], the IC50 was under 200 nM.
